Measured values published in patent publication US20250382439A1, “BLUE LIGHT BLOCKING COMPOUND, BLUE LIGHT BLOCKING COMPOSITION, USE OF BLUE LIGHT BLOCKING COMPOUND, USE OF BLUE LIGHT BLOCKING COMPOSITION AND METHOD FOR PREPARING BLUE LIGHT BLOCKING COMPOUND” (Visco Vision Inc., priority 2024, published 2025).

Experiments:
Type in all cases: physicochemical
[1] = Miscibility evaluation: blue light blocking compound dissolved in HEMA and in a silicone hydrogel contact lens composition; conditions: the higher the value, the greater the miscibility; for miscibility in silicone hydrogel contact lens composition: composition with hydrophilic monomer, first siloxane monomer and second siloxane monomer; for miscibility in HEMA: dissolved in 2-hydroxyethyl methacrylate (HEMA)
Description: The blue light blocking compounds of Examples 1 to 3 and Comparative Example 1 are dissolved in 2-hydroxyethyl methacrylate (represented by HEMA in the table, which is also the hydrophilic monomer used to manufacture the ophthalmic device) and a silicone hydrogel contact lens composition for observing the miscibility, and the results are shown in the following TABLE 1. The higher the value in the TABLE 1, the greater the miscibility. The silicone hydrogel contact lens composition used in the miscibility evaluation includes a polymerizable monomer, and the polymerizable monomer includes a hydrophilic monomer, a first siloxane monomer and a second siloxane monomer.

[2] = as above
[3] = Blue light absorbance evaluation of ophthalmic devices (absorption spectrum, UV-VIS spectrophotometer SHIMADZU UV-2600); conditions: 380 nm to 460 nm
Source text: The above components can be mixed in a specific ratio to form the blue light blocking composition for manufacturing an ophthalmic device. In an embodiment, the blue light blocking composition of the present disclosure may be put into a contact lens mold, and components in the blue light blocking composition undergo a curing reaction (thermal curing reaction or photo curing reaction) through heating or irradiating light to form an ophthalmic device. The heating temperature may be between about 30° C. and about 150° C., and the heating time may be between about 1 hour and 12 hours. In an embodiment, the reaction conditions can be heating at 30-70° C. for 0-2 hours, heating at 70-100° C. for 2-4 hours, and heating at 100-150° C. for 4-12 hours. In an embodiment, a hydration process and/or a sterilization process can be performed after the curing reaction. […]
The ophthalmic devices of Examples 4 to 9 and Comparative Examples 2 and 3 are subjected to a blue light absorbance evaluation. The blue light absorbance is measured by absorption spectrum with UV-VIS spectrophotometer (SHIMADZU UV-2600). The blue light absorbance represents the amount of blue light with a wavelength between 380 nm and 460 nm that are absorbed by silicone hydrogel contact lens.

Row | Compound | miscibility in silicone hydrogel contact lens composition [1] | miscibility in HEMA [1] | miscibility with the silicone hydrogel contact lens compositions (observation) ([2]; addition amount 1.0%) | usable addition amount in silicone hydrogel contact lens composition ([2]; concluded from TABLE 2) | blue light absorbance ([3]; ophthalmic device from silicone hydrogel contact lens composition with 1.5% of the compound) | blue light absorbance ([3]; ophthalmic device from silicone hydrogel contact lens composition with 2% of the compound)
1 | C=CS(=O)(=O)c1cc(OC)c(/N=N/C2C(=O)N(c3ccc(S(=O)(=O)[O-])cc3)N=C2C)cc1C.[Na+] (stereo not drawn) [Comparative Example 1, reference compound] | 0.1% | 5% | precipitation occurs | less than 1.0% |  | 
2 | C=C(C)C(=O)OCCOC(=O)/C(=C/c1ccc(N(C)C)cc1)C(=O)OC [Example 1] | 4.0% | 25% |  |  | 56.1% | 65.3%
3 | C=C(C)C(=O)OCCOC(=O)C(=Cc1ccc(N(C)C)cc1)C(=O)OCCOC(=O)C(=C)C [Example 2] | 4.6% | 67% |  |  |  | 
4 | C=C(C)C(=O)OCCNC(=O)/C(=C/c1ccc(N(C)C)cc1)C(=O)OC [Example 3] | 1.5% | 47% |  |  |  | 
